Data reported in patent US20220144841A1, “TRISUBSTITUTED PYRAZOLO [1,5-A] PYRIMIDINE COMPOUNDS AS CDK7 INHIBITORS” (THE TRANSLATIONAL GENOMICS RESEARCH INSTITUTE, priority 2019, published 2022).
Counter-ions that a name gives are not always drawn.

What was measured:
CDK7/CycH/MAT1 [1] = biological target: T1, CDK7/CycH/MAT1 (Homo sapiens, UniProt P50613); assay: Kinase Glo Assay; type: biochemical; conditions: Kinase-Glo Assay was used (compounds marked *), ATP 1 μM, 60 minutes at room temperature
T1 construct: purchased ProQinase 0366-0360-4
Experimental: (§1) Assay Buffer: 50 mM HEPES, 3 mM MgCl2, 3 mM MnCl2, 1 mM DTT, 3 μM Na3VO4, pH 7.5
Kinase-Glo™ Assay (Promega #: V6711): ATP: 10 mM, Kinase-Glo™ Reagent 384-well white assay plates
A ten point serial dilution of compound was prepared at 5× concentration in assay buffer with the final assay concentrations starting at 30 μM, 10 μM, 3 μM, 1 μM . . . 0 μM. Enzyme and ATP were used at 40 ng and 1 μM, respectively. The assay plate was set up by mixing the components in a total reaction volume of 10 μL per well. The plate was centrifuged gently for 10 seconds and incubated at room temperature (RT) for 60 minutes in the dark. The Kinase-Glo Reagent was added and incubated as recommended. The reaction was quantified by measuring luminescence on the Perkin Elmer Envision plate reader. Data was analyzed using Graphpad Prism 7 software.

CDK7/CycH/MAT1 [2] = biological target: T1, CDK7/CycH/MAT1; assay: Kinase ADP-Glo Assay; type: biochemical; conditions: ADP-Glo assay (compounds without *), ATP 1 μM, 60 minutes at room temperature
Experimental: as §1
Substrate RB: CTF Peptide (ProQinase #: 0040-0000-6)
ADP-Glo™ Assay (Promega #: V9101): ATP: 10 mM, ADP-Glo™ Reagent, Kinase Detection Reagent
384-well white assay plates
A ten point serial dilution of compound was prepared at 5× concentration in assay buffer with the final assay concentrations starting at 30 μM, 10 μM, 3 μM, 1 μM . . . 0 μM. Enzyme, substrate, and ATP were used at 40 ng, 200 ng (or 400 ng)^+ and 1 μM, respectively. The assay plate was set up by mixing the components in a total reaction volume of 10 μL per well. The plate was centrifuged gently for 10 seconds and incubated at room temperature (RT) for 60 minutes in the dark. The ADP-Glo Reagent and kinase detection reagent were added and incubated as recommended. The reaction was quantified by measuring luminescence on the Perkin Elmer Envision plate reader. Data was analyzed using Graphpad Prism 7 software. *With CDK2 enzyme, 400 ng of substrate was used.

T1 sequence (P50613 whole entry): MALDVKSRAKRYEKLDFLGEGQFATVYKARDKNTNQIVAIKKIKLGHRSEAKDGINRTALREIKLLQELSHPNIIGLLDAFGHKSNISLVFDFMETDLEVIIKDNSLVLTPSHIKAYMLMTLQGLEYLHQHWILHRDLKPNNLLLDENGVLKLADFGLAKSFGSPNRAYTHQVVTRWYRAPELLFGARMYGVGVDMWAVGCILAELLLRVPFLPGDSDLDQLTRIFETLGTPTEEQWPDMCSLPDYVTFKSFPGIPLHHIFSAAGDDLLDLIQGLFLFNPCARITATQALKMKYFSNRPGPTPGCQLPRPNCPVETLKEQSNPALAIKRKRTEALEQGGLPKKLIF
T1 sequence (P51946 whole entry partner): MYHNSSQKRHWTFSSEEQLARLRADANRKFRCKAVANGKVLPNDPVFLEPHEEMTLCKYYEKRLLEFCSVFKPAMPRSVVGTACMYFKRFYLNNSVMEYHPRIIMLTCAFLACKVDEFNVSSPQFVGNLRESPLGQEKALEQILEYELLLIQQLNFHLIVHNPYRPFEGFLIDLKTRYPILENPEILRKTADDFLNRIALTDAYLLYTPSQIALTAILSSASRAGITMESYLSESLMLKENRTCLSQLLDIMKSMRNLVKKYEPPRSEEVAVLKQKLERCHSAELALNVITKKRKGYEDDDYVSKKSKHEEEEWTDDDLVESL
T1 sequence (P51948 whole entry partner): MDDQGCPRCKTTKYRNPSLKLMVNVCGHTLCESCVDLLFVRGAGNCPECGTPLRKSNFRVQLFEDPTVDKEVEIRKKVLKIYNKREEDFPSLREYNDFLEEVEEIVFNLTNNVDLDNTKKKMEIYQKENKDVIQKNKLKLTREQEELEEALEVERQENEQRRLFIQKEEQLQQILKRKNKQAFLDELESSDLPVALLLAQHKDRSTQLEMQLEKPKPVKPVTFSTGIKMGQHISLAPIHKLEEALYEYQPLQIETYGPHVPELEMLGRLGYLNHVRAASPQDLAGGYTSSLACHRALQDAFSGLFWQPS

SMILES: Fc1cccc(Nc2cc(N[C@H]3CCCNC3)nc3c(C4CCC4)cnn23)c1 [Compound I-23, (S)-3-cyclobutyl-N^7-(3-fluorophenyl)-N^5-(piperidin-3-yl)pyrazolo[1,5-a]pyrimidine-5,7-diamine hydrochloride]
- IC50 (CDK7/CycH/MAT1 [1]): 100 to 1000 nM

SMILES: Fc1cccc(CNc2cc(N[C@H]3CCCNC3)nc3c(C4CC4)cnn23)c1 [Compound I-32, (S)-3-cyclopropyl-N^7-(3-fluorobenzyl)-N^5-(piperidin-3-yl)pyrazolo[1,5-a]pyrimidine-5,7-diamine hydrochloride]
- IC50 (CDK7/CycH/MAT1 [1]): 100 to 1000 nM

SMILES: Fc1cccc(Nc2cc(N[C@H]3CCCNC3)nc3c(Cl)cnn23)c1 [Compound I-2, (S)-3-chloro-N^7-(3-fluorophenyl)-N^5-(piperidin-3-yl)pyrazolo[1,5-a]pyrimidine-5,7-diamine]
- IC50 (CDK7/CycH/MAT1 [1]): < 100 nM

SMILES: Fc1cccc(Nc2cc(N[C@H]3CCCCNC3)nc3c(C4CC4)cnn23)c1 [Compound I-5, (S)-N^5-(azepan-3-yl)-3-cyclopropyl-N^7-(3-fluorophenyl)pyrazolo[1,5-a]pyrimidine-5,7-diamine]
- IC50 (CDK7/CycH/MAT1 [1]): > 1000 nM

SMILES: Cc1cc(C#N)cc(Nc2cc(N[C@H]3CCCNC3)nc3c(C4CC4)cnn23)c1 [Compound I-67, (S)-3-((3-cyclopropyl-5-((piperidin-3-yl)amino)pyrazolo[1,5-a]pyrimidin-7-yl)amino)-5-methylbenzonitrile]
- IC50 (CDK7/CycH/MAT1 [2]): 100 to 1000 nM

SMILES: O[C@H]1CCNC[C@@H]1Nc1cc(Nc2cccc(F)c2)n2ncc(Cl)c2n1 [Compound I-3, (3S,4S)-3-((3-chloro-7-((3-fluorophenyl)amino)pyrazolo [1,5-a]pyrimidin-5-yl)amino)piperidin-4-ol]
- IC50 (CDK7/CycH/MAT1 [1]): > 1000 nM

SMILES: Cc1cc(Nc2cc(N[C@H]3CCCNC3)nc3c(C4CCC4)cnn23)cc(C(F)(F)F)c1 [Compound I-63, (S)-3-cyclobutyl-N^7-(5-methyl-3-trifluoromethylphenyl)-N^5-(piperidin-3-yl)pyrazolo[1,5-a]pyrimidine-5,7-diamine]
- IC50 (CDK7/CycH/MAT1 [2]): < 100 nM

SMILES: N#Cc1cnn2c(NCc3cccc(Cl)c3)cc(N[C@H]3CCCNC3)nc12 [Compound I-28, (S)-7-((3-chlorobenzyl)amino)-5-((piperidin-3-yl)amino)pyrazolo[1,5-a]pyrimidine-3-carbonitrile]
- IC50 (CDK7/CycH/MAT1 [1]): 100 to 1000 nM

SMILES: Cc1cc(C#N)cc(Nc2cc(N[C@H]3CCCNC3)nc3c(C4CCC4)cnn23)c1 [Compound I-68, (S)-3-((3-cyclobutyl-5-((piperidin-3-yl)amino)pyrazolo[1,5-a]pyrimidin-7-yl)amino)-5-methylbenzonitrile]
- IC50 (CDK7/CycH/MAT1 [2]): < 100 nM

SMILES: Fc1cc(Nc2cc(O[C@H]3CCCNC3)nc3c(C4CCC4)cnn23)cc(C(F)(F)F)c1 [Compound I-65, (S)-3-cyclobutyl-N-(5-fluoro-3-trifluoromethylphenyl)-5-((piperidin-3-yl)oxy)pyrazolo[1,5-a]pyrimidin-7-amine]
- IC50 (CDK7/CycH/MAT1 [2]): < 100 nM

SMILES: Cc1cc(Nc2cc(N[C@H]3CCCNC3)nc3c(C4CC4)cnn23)cc(C(F)(F)F)c1 [Compound I-62, (S)-3-cyclopropyl-N^7-(5-methyl-3-trifluoromethylphenyl)-N^5-(piperidin-3-yl)pyrazolo[1,5-a]pyrimidine-5,7-diamine]
- IC50 (CDK7/CycH/MAT1 [2]): 100 to 1000 nM

SMILES: Fc1cc(Nc2cc(O[C@H]3CCCNC3)nc3c(C4CC4)cnn23)cc(C(F)(F)F)c1 [Compound I-64, (S)-3-cyclopropyl-N-(5-fluoro-3-trifluoromethylphenyl)-5-((piperidin-3-yl)oxy)pyrazolo[1,5-a]pyrimidin-7-amine]
- IC50 (CDK7/CycH/MAT1 [2]): 100 to 1000 nM

SMILES: OCCN1CCC[C@H](Nc2cc(NCc3cccc(F)c3)n3ncc(C4CC4)c3n2)C1 [Compound I-33, (S)-2-(3-((3-cyclopropyl-7-((3-fluorobenzyl)amino)pyrazolo [1,5-a]pyrimidin-5-yl)amino)piperidin-1-yl)ethan-l-ol]
- IC50 (CDK7/CycH/MAT1 [1]): 100 to 1000 nM

SMILES: Fc1cccc(Nc2cc(NC[C@H]3CCCNC3)nc3c(C4CC4)cnn23)c1 [Compound I-13]
- IC50 (CDK7/CycH/MAT1 [2]): > 1000 nM

SMILES: N#Cc1cnn2c(NCc3cc(Cl)cc(Cl)c3)cc(N[C@H]3CCCNC3)nc12 [Compound I-26, (S)-7-((3,5-dichlorobenzyl)amino)-5-((piperidin-3-yl)amino)pyrazolo[1,5-a]pyrimidine-3-carbonitrile]
- IC50 (CDK7/CycH/MAT1 [1]): 100 to 1000 nM

SMILES: O[C@@H]1CNCC[C@@H]1CNc1cc(Nc2cccc(F)c2)n2ncc(C3CC3)c2n1 [Compound I-12, (3S,4R)-4-((3-cyclopropyl-7-((3-fluorophenyl)amino)pyrazolo [1,5-a]pyrimidin-5-yl)aminomethyl)piperidin-3-ol]
- IC50 (CDK7/CycH/MAT1 [2]): 100 to 1000 nM

SMILES: Cc1cc(C#N)cc(Nc2cc(O[C@H]3CCCNC3)nc3c(C4CC4)cnn23)c1 [Compound I-69, (S)-3-((3-cyclopropyl-5-((piperidin-3-yl)oxy)pyrazolo [1,5-a]pyrimidin-7-yl)amino)-5-methylbenzonitrile]
- IC50 (CDK7/CycH/MAT1 [2]): < 100 nM

SMILES: O[C@@H]1CNC[C@@H](Nc2cc(Nc3cccc(F)c3)n3ncc(C4CC4)c3n2)C1 [Compound I-22, hydrochloride]
- IC50 (CDK7/CycH/MAT1 [2]): > 1000 nM

SMILES: Cc1cc(Nc2cc(O[C@H]3CCCNC3)nc3c(C4CC4)cnn23)cc(C(F)(F)F)c1 [Compound I-61, (S)-3-cyclopropyl-N-(5-methyl-3-trifluoromethylphenyl)-5-((piperidin-3-yl)oxy)pyrazolo[1,5-a]pyrimidin-7-amine]
- IC50 (CDK7/CycH/MAT1 [2]): 100 to 1000 nM

SMILES: N#Cc1cc(F)cc(Nc2cc(NC[C@@H]3CCNC[C@H]3O)nc3c(C4CC4)cnn23)c1 [Compound I-16, (3S,4S)-3-((3-cyclopropyl-5-(((3-hydroxy)piperidin-4-yl)methylamino)pyrazolo[1,5-a]pyrimidin-7-yl)amino)-5-fluorobenzonitrile trifluoroacetate salt]
- IC50 (CDK7/CycH/MAT1 [2]): > 1000 nM

SMILES: N#Cc1cnn2c(NCc3cc(F)cc(Cl)c3)cc(N[C@H]3CCCNC3)nc12 [Compound I-27, (S)-7-((3-chloro-5-fluorobenzyl)amino)-5-((piperidin-3-yl)amino)pyrazolo[1,5-a]pyrimidine-3-carbonitrile]
- IC50 (CDK7/CycH/MAT1 [1]): 100 to 1000 nM

SMILES: N#Cc1cccc(Nc2cc(N[C@H]3CCCNC3)nc3c(C4CC4)cnn23)c1 [Compound I-9, (S)-3-((3-cyclopropyl-5-((piperidin-3-yl)amino)pyrazolo[1,5-a]pyrimidin-7-yl)amino)benzonitrile]
- IC50 (CDK7/CycH/MAT1 [2]): < 100 nM

SMILES: N#Cc1cnn2c(NCc3cccc(F)c3)cc(N[C@H]3CCCNC3)nc12 [Compound I-29, (S)-7-((3-fluorobenzyl)amino)-5-((piperidin-3-yl)amino)pyrazolo[1,5-a]pyrimidine-3-carbonitrile]
- IC50 (CDK7/CycH/MAT1 [2]): 100 to 1000 nM

SMILES: Cc1cc(F)cc(Nc2cc(NC[C@H]3CCNC[C@@H]3O)nc3c(C4CC4)cnn23)c1 [Compound I-49, (3R,4R)-4-((3-cyclopropyl-7-((3-fluoro-5-methylphenyl)amino)pyrazolo [1,5-a]pyrimidin-5-yl)aminomethyl)piperidin-3-ol]
- IC50 (CDK7/CycH/MAT1 [2]): < 100 nM

SMILES: O[C@H]1CCNC[C@@H]1Nc1cc(Nc2cccc(F)c2)n2ncc(C3CCC3)c2n1 [Compound I-24, (3S,4S)-3-((3-cyclobutyl-7-((3-fluorophenyl)amino)pyrazolo [1,5-a]pyrimidin-5-yl)amino)piperidin-4-ol hydrochloride]
- IC50 (CDK7/CycH/MAT1 [1]): > 1000 nM

SMILES: O[C@@H]1CNCC[C@H]1COc1cc(Nc2cccc(F)c2)n2ncc(C3CC3)c2n1 (relative stereo) [Compound I-53, trans-4-((3-cyclopropyl-7-((3-fluorophenyl)amino)pyrazolo [1,5-a]pyrimidin-5-yl)oxymethyl)piperidin-3-ol]
- IC50 (CDK7/CycH/MAT1 [2]): < 100 nM

SMILES: Clc1cccc(Nc2cc(N[C@H]3CCCNC3)nc3c(Cl)cnn23)c1 [Compound I-1, (S)-3-chloro-N^7-(3 - chlorophenyl)-N^5-(piperidin-3-yl)pyrazolo[1,5-a]pyrimidine-5,7-diamine]
- IC50 (CDK7/CycH/MAT1 [1]): 100 to 1000 nM

SMILES: Clc1cccc(Nc2cc(N[C@H]3CCCNC3)nc3c(C4CC4)cnn23)c1 [Compound I-18]
- IC50 (CDK7/CycH/MAT1 [2]): < 100 nM

SMILES: Fc1cccc(Nc2cc(N[C@H]3CCCNC3)nc3c(C4CC4)cnn23)c1 [Compound I-19, hydrochloride]
- IC50 (CDK7/CycH/MAT1 [1]): 100 to 1000 nM
